Experimental data published in patent US20160128338A1, “COMPOSITION AND METHODS FOR IMPROVED TURF HEALTH” (Valent U.S.A., Corporation, priority 2014, published 2016).

What was measured:
[1] = tested on: Dollar spot (Sclerotinia homoeocarpa); test: Dollar spot on creeping bentgrass fairways, field plots (% damage); assay type: in vivo; settings: Plot 2, Metconazole 0.14 oz ai/1000 sq ft
Source text: (§1) In order to determine the efficacy of combinations of metconazole and Myrothecium verucaria fermentation solids and solubles, numerous treatments were applied to plots in an area of turf grass. Specifically, the plots had established creeping bentgrass growing. No weed infestation was observed. Each plot was 30 square feet and the treatments were done in four replications. A randomized control was included in each block. The plots were no-till golf fairways. The treatments were applied during times of heat stress and also during times when no heat stress was present. The treatment solutions were prepared by pouring the liquid and dispersible granules in water and mixing. Treatments were applied to the turf grass at a volume of 2 gallons (256 liquid ounces)/1000 ft^2 with a CO2 backpack sprayer at 34 psi with a ground speed of 1 mph. The plots received six applications on 22 May, 6 June, 19 June, 4 July, 17 July, and 14 August. The turf grass was evaluated approximately every 7 days. Effect of Metconazole and Myrothecium verucaria fermentation solids and solubles on Dollar Spot on Creeping Bentgrass Fairways (% Damage)” and “Table 2. Effect of Metconazole and Myrothecium verucaria fermentation solids and solubles on Dollar Spot on Creeping Bentgrass Fairways (Quality Rating Based on a Scale of 1-9)”.

[2] = tested on: creeping bentgrass; test: Turf quality rating of creeping bentgrass fairways with dollar spot, field plots (scale 1-9); assay type: in vivo, creeping bentgrass (Agrostis stolonifera); settings: Plot 2, Metconazole 0.14 oz ai/1000 sq ft
Source text: as §1

SMILES: CC1(C)CCC(Cc2ccc(Cl)cc2)C1(O)Cn1cncn1 (centres unmarked) [Metconazole, 5-[(4-chlorophenyl)methyl]-2,2-dimetyl-1-(1 H-1,2,4-triazol-1-ylmethyl)cyclopentanol]
- Dollar Spot % Damage ([1]; 3 July): 16.3%
- Dollar Spot % Damage ([1]; 6 June): 8.8%
- Dollar Spot % Damage ([1]; 7 Aug): 36.3%
- Dollar Spot % Damage ([1]; 10 July): 32.5%
- Dollar Spot % Damage ([1]; 14 Aug): 55.0%
- Dollar Spot % Damage ([1]; 15 June): 7.5%
- Dollar Spot % Damage ([1]; 17 July): 36.3%
- Dollar Spot % Damage ([1]; 21 Aug): 37.5%
- Dollar Spot % Damage ([1]; 22 June): 10.0%
- Dollar Spot % Damage ([1]; 25 July): 24.3%
- Dollar Spot % Damage ([1]; 26 June): 11.3%
- Dollar Spot % Damage ([1]; 31 July): 31.3%
- Quality Rating Based on a Scale of 1-9 ([2]; 3 July): 4.5
- Quality Rating Based on a Scale of 1-9 ([2]; 7 Aug): 4.8
- Quality Rating Based on a Scale of 1-9 ([2]; 10 July): 3.8
- Quality Rating Based on a Scale of 1-9 ([2]; 14 Aug): 4.0
- Quality Rating Based on a Scale of 1-9 ([2]; 15 June): 6.0
- Quality Rating Based on a Scale of 1-9 ([2]; 17 July): 3.5
- Quality Rating Based on a Scale of 1-9 ([2]; 21 Aug): 4.3
- Quality Rating Based on a Scale of 1-9 ([2]; 22 June): 5.5
- Quality Rating Based on a Scale of 1-9 ([2]; 25 July): 4.8
- Quality Rating Based on a Scale of 1-9 ([2]; 26 June): 5.5
- Quality Rating Based on a Scale of 1-9 ([2]; 31 July): 4.8
